Assay results published in patent publication US8859598B2, “1, 2, 4-oxadiazoles azetidine derivatives as sphingosine-1 phosphate receptors modulators” (Allergan, Inc., priority 2012, dated 2014).

Target: T1, human S1P1 receptor (Homo sapiens, UniProt P21453)
T1 construct: expressed in transfected cells; membranes used
Assay: GTP γ35S binding assay for S1P1 activity
Type: biochemical
Details: membranes of cells stably expressing the S1P1 receptor, test concentrations 0.08 to 5,000 nM
Method: Compounds were synthesized and tested for S1P1 activity using the GTP γ^35S binding assay. These compounds may be assessed for their ability to activate or block activation of the human S1P1 receptor in cells stably expressing the S1P1 receptor.
GTP γ^35S binding was measured in the medium containing (mM) HEPES 25, pH 7.4, MgCl2 10, NaCl 100, dithitothreitol 0.5, digitonin 0.003%, 0.2 nM GTP γ^35S, and 5 μg membrane protein in a volume of 150 μl. Test compounds were included in the concentration range from 0.08 to 5,000 nM unless indicated otherwise. Membranes were incubated with 100 μM 5′-adenylylimmidodiphosphate for 30 min, and subsequently with 10 μM GDP for 10 min on ice. Drug solutions and membrane were mixed, and then reactions were initiated by adding GTP γ^35S and continued for 30 min at 25° C. Reaction mixtures were filtered over Whatman GF/B filters under vacuum, and washed three times with 3 mL of ice-cold buffer (HEPES 25, pH7.4, MgCl2 10 and NaCl 100). Filters were dried and mixed with scintillant, and counted for ^35S activity using a β-counter. Agonist-induced GTP γ^35S binding was obtained by subtracting that in the absence of agonist. Binding data were analyzed using a non-linear regression method. In case of antagonist assay, the reaction mixture contained 10 nM […] in the presence of test antagonist at concentrations ranging from 0.08 to 5000 nM.

T1 sequence (P21453 whole entry): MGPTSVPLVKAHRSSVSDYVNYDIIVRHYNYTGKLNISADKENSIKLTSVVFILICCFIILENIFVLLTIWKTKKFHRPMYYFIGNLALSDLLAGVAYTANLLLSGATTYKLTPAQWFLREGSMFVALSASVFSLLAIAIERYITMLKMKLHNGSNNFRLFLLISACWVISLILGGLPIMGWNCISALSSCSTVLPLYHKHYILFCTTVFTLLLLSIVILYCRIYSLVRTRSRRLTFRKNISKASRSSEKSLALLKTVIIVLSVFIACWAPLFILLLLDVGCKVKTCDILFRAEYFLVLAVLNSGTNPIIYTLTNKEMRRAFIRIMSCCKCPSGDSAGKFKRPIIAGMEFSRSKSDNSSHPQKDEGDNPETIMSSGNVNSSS

O=C(O)C1CN(Cc2ccc(-c3noc(CCCCc4ccccc4)n3)cc2)C1 [Compound 1, 1-{4-[5-(4-Phenylbutyl)-1,2,4-oxadiazol-3-yl]benzyl}azetidine-3-carboxylic acid]
EC50: 483 nM
